{
  "source": "patent US20070207144A1",
  "about": "“Ubiquitin/proteasome inhibitors for the treatment of spinal muscular atrophy” (priority 2006, published 2007)",
  "key": {"[1]": {"test_system": "fibroblasts isolated from an SMA patient", "assay": "SMN protein and gem formation in SMA patient fibroblasts", "assay_type": "cell-based, human", "details": "compared with the control DMSO", "source_text": "The invention is further related to the appreciation that the assays described herein can be efficiently used as the primary assay for selecting a candidate for the treatment of SMA. Thus, the invention relates to a method for selecting a candidate for the treatment of SM-A comprising (a) contacting the candidate with a fibroblast cell culture derived from an SMA patient under conditions and for a period of time sufficient for SMN protein expression and gem formation; (b) determining the formation of gems of SMN protein; and (c) selecting the candidate. The formation of gems can be determined by establishing the percentage of fibroblasts with gems in the cell culture. In other embodiments, the number of gems or concentration of gems in the culture can be determined.\nCell lines are derived from SMA patients. Such cells are termed “SMA cells” herein. The cells are isolated from a variety of sources and tissues. For example, the cells can be isolated from a blood sample or from a biopsy. The cell can be a stem cell, a fibroblast, a neuronal cell or a lymphoid cell. The cells can be propagated in culture according to cell type and origin of the cells. The requisite growth factors can be provided in the media. For example, the media can be supplemented with fetal calf serum, a cocktail of purified factors, or an individual growth factor. The cells can be propagated without being immortalized. Alternatively, the cells can immortalized using a virus or a plasmid bearing an oncogene, or a transforming viral protein, e.g., papilloma E6 or E7 protein. The source of the fibroblasts for cell culture can be isolated from a patient with SMA or derived from such an isolation. In one embodiment, the cells are a clonal cell culture derived from an SMA patient.\nProcedures for isolating and maintaining cells lines are well known in the art and can be found in suitable laboratory manuals. The cells can be grown in sufficient amount to screen an array of test compounds. Alternatively, cells can be used to assess the effectiveness of individual compounds as SMA treatments. […]"}, "[2]": {"test_system": "proteasome", "details": "Fenteany et al., Science 1995; cited from earlier work"}, "[3]": {"test_system": "several cell types", "details": "Fenteany et al., PNAS 1994; cited from earlier work"}},
  "data": [
    {"smiles": "CC(C)[C@H](O)[C@@]12NC(=O)[C@H](CCCl)[C@]1(C)OC2=O", "note": "[Antiprotealide, antiprotealide]", "values": [
      {"measurement": "SMN & Gems in patient fibroblasts (pictures)", "setting": "[1]", "value": "induced"}
    ]},
    {"smiles": "CC(=O)N[C@@H](CSC(=O)[C@]1([C@@H](O)C(C)C)NC(=O)[C@H](C)[C@@H]1O)C(=O)O", "note": "[Lactacystin, lactacystin]", "values": [
      {"measurement": "SMN & Gems in patient fibroblasts (pictures)", "setting": "[1]", "value": "induced"},
      {"measurement": "proteolytic activity of the proteasome complex", "setting": "[2]", "value": "specifically inhibits"},
      {"measurement": "proliferation of several cell types", "setting": "[3]", "value": "capable of inhibiting"}
    ]},
    {"smiles": "CC(C)C[C@H](NC(=O)[C@H](Cc1ccccc1)NC(=O)c1cnccn1)B(O)O", "note": "[Velcade, bortezomib]", "values": [
      {"measurement": "SMN & Gems in patient fibroblasts (pictures)", "setting": "[1]", "value": "induced"}
    ]}
  ]
}
